Experimental data: publication PMC8878468, “Image-Based Annotation of Chemogenomic Libraries for Phenotypic Screening” (Molecules, 2022)
Where a name gives a salt, the structure may show the parent alone. Read-outs that look alike come from different tables or passages of the source.

Legend:
U2OS cells [1] = assay: Multiplex high-content protocol (nuclei gating, tubulin, mitochondrial mass, membrane permeability); type: cell-based, human; settings: for viability at 1 µM: Homo sapiens, read-out: healthy nuclei; for tubulin effect / increase in mitochondrial mass in comparison to DMSO: healthy nuclei only; for marked for tubulin effects while crossing no other phenotypic threshold / mitochondrial mass increase detected: threshold > 50%
Procedure: Using the CQ1 high-content confocal microscope (Yokogawa), cellular shape and fluorescence was measured before and 12 h as well as 24 h after compound treatment. All compounds were diluted in DMSO to a concentration of 10 mM.
The rather large spacing distance was used to create a robust readout, compensating potential plate variations and enabling automated screening without the use of autofocus. The overlap of the fluorescence emission spectra of the dyes was neglectable for all but the MitoTracker Red and Annexin V Alexa Fluor 680 (Supplementary Figure S9).
All images were analyzed using the CellPathfinder software (Yokogawa). Segmentation of cells was performed as described earlier. First, the cells are classified in Hoechst High Intensity Objects or Normal Intensity Objects (Supplementary Table S7). All normal gated cells are further classified in healthy, fragmented or pyknosed nuclei (Supplementary Table S7). The pyknosed cells are gated in mitotic or apoptotic cells using seven features for the cell body and five features for the cell nuclei according to their Annexin V staining intensity (Supplementary Table S7). All cells that were classified as including a healthy nucleus are further gated into three phenotypic classes. […] Growth rate was calculated against non-treated cells and cells treated with DMSO 0.1% [61].

HCT116-FUCCI cells [2] = assay: FUCCI cell cycle assay with nuclear gating; type: cell-based, human; settings: 10 µM, up to 70 h
Procedure: For generation of a stable cell line, including the florescent ubiquitination-base cell cycle indicator FUCCI, the plasmid-based transposon system Sleeping Beauty was used. Vector (pSBbi_Fucci) and the Transposase SB100X have been described previously. […] Two days after transfection, cells were selected over 10 days using puromycin (1 µg/mL) and cultivated afterwards for two more weeks in McCoys 5A plus L-Glutamine (Gibco) supplemented by 10% FBS (Gibco) and Penicillin/Streptomycin (Gibco).
Fluorescence and cellular shape were measured before and after compound treatment for 72 h every 12 h using the CQ1 high-content confocal microscope (Yokogawa). […]
Image analysis was performed using the CellPathfinder software (Yokogawa). Segmentation of cells was performed as described earlier. First, the cells are classified in Hoechst High Intensity Objects or Normal Intensity Objects (Supplementary Table S7). All normal gated cells are further classified in healthy, fragmented or pyknosed nuclei (Supplementary Table S7). […] Total cell count was normalized against total cell count of cells treated with 0.1% DMSO.

HCT116-FUCCI cells [3] = system: HCT116-FUCCI cells; set-up: method as in per compound as in column reference of Table S3; settings: literature annotation in Table S3; ref per compound as in Table S3; cited from earlier work
U2OS cells [4] = assay: cells; settings: Homo sapiens

Cc1c(P(=S)(c2ccccc2)c2ccccc2)n2ccccc2[n+]1C/C=C/c1ccccc1 [ML154]
viability at 1 µM (U2OS cells [1]; U2OS, 1 µM, 24 h): ≤ 40%

CN([C@@H](Cc1ccc(OS(=O)(=O)c2cccc3cnccc23)cc1)C(=O)N1CCN(c2ccccc2)CC1)S(=O)(=O)c1cccc2cnccc12 [KN-62]
tubulin effects (U2OS cells [1]; U2OS, 1 µM): > 90%

CCC1=C[C@@H]2CN(C1)Cc1c([nH]c3ccccc13)[C@@](C(=O)OC)(c1cc3c(cc1OC)N(C)[C@H]1[C@@](O)(C(=O)OC)[C@H](OC(C)=O)[C@]4(CC)C=CCN5CC[C@]31[C@@H]54)C2 [vinorelbine tartrate]
tubulin effect (U2OS cells [1]; U2OS, 10 µM, 24 h): increased tubulin effects

CCNc1cc(NC2CCC(O)CC2)nc(Nc2ccc3c(ccn3Cc3ccccc3)c2)n1 (stereo not shown) [CINK4]
marked for tubulin effects while crossing no other phenotypic threshold (U2OS cells [1]; U2OS, 1 µM): marked to have tubulin effects

CCOc1cc(C(=O)N2CCC(N3CCN(C)CC3)CC2)ccc1Nc1ncc2c(n1)N(C1CCCC1)c1ccccc1C(=O)N2C [XMD17-109]
mitochondrial mass increase detected (U2OS cells [1]; U2OS, 1 µM): mitochondrial mass increase

Nc1ncnc2c1c(-c1cccc(OCc3ccccc3)c1)cn2[C@H]1C[C@@H](CN2CCC2)C1 [NVP-AEW541]
mitochondrial mass increase detected (U2OS cells [1]; U2OS, 1 µM): mitochondrial mass increase

C=CCn1c(=O)c2cnc(Nc3ccc(N4CCN(C)CC4)cc3)nc2n1-c1cccc(C(C)(C)O)n1 [adavosertib]
viability at 1 µM (U2OS cells [1]; U2OS, 1 µM, 24 h): ≤ 40%

CCN1CCN(c2ccc(Nc3cc(N(C)C(=O)Nc4c(Cl)c(OC)cc(OC)c4Cl)ncn3)cc2)CC1 [infigratinib]
viability at 1 µM (U2OS cells [1]; U2OS, 1 µM, 24 h): ≤ 40%

CS(=O)(=O)N1CCCC(NC(=O)[C@H](CCC2CCCCC2)NC(=O)c2ccc(CNC(=O)c3cnc4ccccn34)cc2)C1 (stereo partly shown) [SR-302]
tubulin effect (U2OS cells [1]; U2OS, 10 µM, 24 h): more than 90%

Nc1c(C(=O)NCc2ccc(C(=O)NCCCC3CCCCC3)cc2)cnn1-c1ccccc1 [SR-318]
marked for tubulin effects while crossing no other phenotypic threshold (U2OS cells [1]; U2OS, 1 µM): marked to have tubulin effects | healthy nuclei (healthy cells) (U2OS cells [1]; U2OS, 10 µM, 24 h): over 80% | increase in mitochondrial mass in comparison to DMSO (U2OS cells [1]; U2OS, 10 µM, 24 h): over 60% | tubulin effect (U2OS cells [1]; U2OS, 10 µM, 24 h): more than 90%

COc1cc2c(Nc3ccc(NC(=O)c4ccccc4)cc3)ncnc2cc1OCCCN1CCOCC1 [ZM447439]
marked for tubulin effects while crossing no other phenotypic threshold (U2OS cells [1]; U2OS, 1 µM): marked to have tubulin effects

C[C@@]1(C(=O)Nc2ccc(F)nc2)CCCN1c1nc(Nc2cc(C3CC3)n[nH]2)c2cccn2n1 [BMS-754807]
viability at 1 µM (U2OS cells [1]; U2OS, 1 µM, 24 h): ≤ 40%

COc1cc2ncnc(Nc3ccc(F)c(Cl)c3)c2cc1NC(=O)/C=C/CN1CCCCC1 [PF-299804]
membrane permeabilization effects (U2OS cells [1]; U2OS, 1 µM, 24 h): more than 65% | marked for tubulin effects while crossing no other phenotypic threshold (U2OS cells [1]; U2OS, 1 µM): marked to have tubulin effects

C=CC(=O)Nc1cccc(Oc2nc(Nc3ccc(N4CCN(C)CC4)cc3OC)ncc2Cl)c1 [WZ-4002]
effect on tubulin (U2OS cells [1]; 1 µM, 12 h): effect on tubulin | membrane permeabilization effects (U2OS cells [1]; U2OS, 1 µM, 24 h): membrane permeabilization

CC(=O)Nc1cccc(-n2c(=O)n(C3CC3)c(=O)c3c(Nc4ccc(I)cc4F)n(C)c(=O)c(C)c32)c1 [trametinib]
change of FUCCI nuclei population in comparison to DMSO (HCT116-FUCCI cells [2]): increase in red nuclei

COc1ccc(C[C@H](N)C(=O)N[C@H]2[C@@H](O)[C@H](n3cnc4c(N(C)C)ncnc43)O[C@@H]2CO)cc1 [puromycin]
mitochondrial mass, first analysis gating all cells independently of viability (U2OS cells [1]; 10 µM): increased mitochondrial mass | tubulin effect, first analysis gating all cells independently of viability (U2OS cells [1]; 10 µM): tubulin effects | healthy nuclei (healthy cells) (U2OS cells [1]; U2OS, 10 µM, 24 h): less than 50% | known cell cycle effect (HCT116-FUCCI cells [3]): effect on cell cycle

CN1CCCC(n2nc(Cc3ccc(Cl)cc3)c3ccccc3c2=O)CC1 (stereo not shown) [azelastine]
mitochondrial mass increase detected (U2OS cells [1]; U2OS, 1 µM): mitochondrial mass increase

C[C@@H]1CC[C@@]2(OC1)O[C@H]1[C@@H](O)[C@H]3[C@@H]4CC[C@H]5C[C@@H](O[C@@H]6O[C@H](CO)[C@H](O[C@@H]7O[C@H](CO)[C@@H](O)[C@H](O[C@@H]8OC[C@@H](O)[C@H](O)[C@H]8O)[C@H]7O[C@@H]7O[C@H](CO)[C@H](O)[C@H](O[C@@H]8O[C@H](CO)[C@@H](O)[C@H](O)[C@H]8O)[C@H]7O)[C@H](O)[C@H]6O)[C@H](O)C[C@]5(C)[C@H]4CC[C@]3(C)[C@H]1[C@@H]2C [digitonin]
healthy nuclei (healthy cells) (U2OS cells [1]; U2OS, 10 µM, 24 h): more than 50% | IC50 (U2OS cells [4]; 14 h, read-out: IC 50 14 h): 10.6 µM | IC50 (U2OS cells [4]; 26 h, read-out: IC 50 26 h): 11.6 µM | IC50 (U2OS cells [4]; 42 h, read-out: IC 50 42 h): 11.5 µM | IC50 (U2OS cells [4]; 56 h, read-out: IC 50 56 h): 15.1 µM

Cc1cc(C)c(-n2ccn3nc(-c4cccnc4)cc23)cc1NC(=O)c1cc(C#N)cc(S(F)(F)(F)(F)F)c1 [BAY-826]
marked for tubulin effects while crossing no other phenotypic threshold (U2OS cells [1]; U2OS, 1 µM): marked to have tubulin effects

Cc1[nH]c(/C=C2\C(=O)Nc3ccc(S(=O)(=O)N(C)c4cccc(Cl)c4)cc32)c(C)c1C(=O)N1CCN(C)CC1 [SU11274]
marked for tubulin effects while crossing no other phenotypic threshold (U2OS cells [1]; U2OS, 1 µM): marked to have tubulin effects

CNCc1ccc(-c2cc(-c3nc(-c4ccc(S(=O)(=O)C(C)C)cc4)cnc3N)on2)cc1 [berzosertib]
Hoechst High Intensity Objects (Hoechst intensity compared to normal nuclei) (U2OS cells [1]; U2OS, 1 µM): more than 50% | IC50 (U2OS cells [4]; 14 h, read-out: IC 50 14 h): 0.0627 µM | IC50 (U2OS cells [4]; 26 h, read-out: IC 50 26 h): 0.0641 µM | IC50 (U2OS cells [4]; 42 h, read-out: IC 50 42 h): 0.0587 µM | IC50 (U2OS cells [4]; 56 h, read-out: IC 50 56 h): 0.0565 µM

Nc1ccc(C(=O)Nc2cccc(-c3nc(N4CCOCC4)c4oc5ncccc5c4n3)c2)cn1 [YM-201636]
marked for tubulin effects while crossing no other phenotypic threshold (U2OS cells [1]; U2OS, 1 µM): marked to have tubulin effects

CC[C@@H]1C(=O)N(C)c2cnc(Nc3ccc(C(=O)N[C@H]4CC[C@H](N5CCN(CC6CC6)CC5)CC4)cc3OC)nc2N1C(C)C [volasertib]
viability at 1 µM (U2OS cells [1]; U2OS, 1 µM, 24 h): ≤ 40%

Cc1ccc(NC(=O)Nc2cc(C(F)(F)F)ccc2F)cc1Nc1ccc2c(c1)NC(=O)/C2=C\c1ccc[nH]1 [GNF-5837]
viability at 1 µM (U2OS cells [1]; U2OS, 1 µM, 24 h): ≤ 40% | decrease of healthy nuclei count (U2OS cells [1]; U2OS, 1 µM): more than 60%

c1ccc2oc(-c3csc(C4CCN(Cc5nc6ncccc6[nH]5)CC4)n3)cc2c1 [BAY-179]
healthy nuclei (healthy cells) (U2OS cells [1]; U2OS, 10 µM, 24 h): over 80% | increase in mitochondrial mass in comparison to DMSO (U2OS cells [1]; U2OS, 10 µM, 24 h): over 60%

CN1CCN(Cc2ccc(Nc3ncc(Cl)c(Nc4ccccc4S(=O)(=O)N(C)C)n3)cc2)CC1 [TP0903]
viability at 1 µM (U2OS cells [1]; U2OS, 1 µM, 24 h): ≤ 40% | decrease of healthy nuclei count (U2OS cells [1]; U2OS, 1 µM): more than 60%

COc1ncc(-c2ccc3nccc(-c4ccnnc4)c3c2)cc1NS(=O)(=O)c1ccc(F)cc1F [omipalisib]
viability at 1 µM (U2OS cells [1]; U2OS, 1 µM, 24 h): ≤ 40% | decrease of healthy nuclei count (U2OS cells [1]; U2OS, 1 µM): more than 60%

CCOC(=O)c1c(C)[nH]c2ccc3c(c12)CN1CCc2cc(OC)ccc2C1O3 (stereo not shown) [PD 102807]
mitochondrial mass increase detected (U2OS cells [1]; U2OS, 1 µM): mitochondrial mass increase

O=C(CCCCCCNC(=O)c1cnc(N(c2ccccc2)c2ccccc2)nc1)NO [ricolinostat]
IC50 (U2OS cells [4]; 26 h, read-out: IC 50 26 h): 13.5 µM | IC50 (U2OS cells [4]; 42 h, read-out: IC 50 42 h): 13.4 µM | IC50 (U2OS cells [4]; 56 h, read-out: IC 50 56 h): 13.7 µM

Cc1[nH]c2ccccc2c1CCNCc1ccc(/C=C/C(=O)NO)cc1 [Panobinostat]
known cell cycle effect (HCT116-FUCCI cells [3]): G 1/S cell cy cle arrest

Cc1cc(C)cc(-c2cnc3cc(Cl)c(-c4cccc(O)c4)cc3c2OCCCN)c1 [TC-G 1003]
mitochondrial mass increase detected (U2OS cells [1]; U2OS, 1 µM): mitochondrial mass increase

CC(C)Oc1ccccc1C(=O)Nc1ccccc1C(=O)Nc1cccc(S(=O)(=O)C(F)(F)F)c1 [ML-290]
mitochondrial mass increase detected (U2OS cells [1]; U2OS, 1 µM): mitochondrial mass increase

CCn1cc(-c2ccnc3[nH]c(-c4cccc(CN(C)C)c4)cc23)c(-c2ccc(NC(=O)N(C)C)cc2)n1 [GSK1070916]
mitochondrial mass increase detected (U2OS cells [1]; U2OS, 1 µM): mitochondrial mass increase

COc1cc(Nc2ccnc3ccc(Br)cc23)cc(OC)c1OC [SGC-GAK-1]
mitochondrial mass increase detected (U2OS cells [1]; U2OS, 1 µM): mitochondrial mass increase

CC[C@@]1(O)C(=O)OCc2c1cc1n(c2=O)Cc2cc3c(CN(C)C)c(O)ccc3nc2-1 [topotecan]
mitochondrial mass increase detected (U2OS cells [1]; U2OS, 1 µM): mitochondrial mass increase | healthy nuclei (healthy cells) (U2OS cells [1]; U2OS, 10 µM, 24 h): less than 50% | Hoechst High Intensity Objects (U2OS cells [1]; U2OS, 10 µM, after 24 h, in one of two biological replicates): > 30% | change of FUCCI nuclei population in comparison to DMSO (HCT116-FUCCI cells [2]): increase in green nuclei

CN1CCN(Cc2cc(NC(=O)c3ccc4c(c3)CN(c3ccccc3)CC4)cc(C(F)(F)F)c2)CC1 [DDR-TRK-1N]
healthy nuclei (U2OS cells [1]; U2OS, 1 µM, 24 h): ≤ 40%
